Test results: publication PMC12015462, “Prioritization of novel anti-infective stilbene derivatives by combining metabolomic data organization and a stringent 3R-infection model in a knowledge graph” (RSC Advances, 2025)
Read-outs that look alike come from different tables or passages of the source.

Assays:
Assay type in all cases: cell-based
Mycobacterium marinum [1] = assay: Infection assay: intracellular M. marinum growth (luminescence) in D. discoideum; details: for activity at 0.411523 µM / activity at 1.23457 µM / activity at 3.7037 µM / activity at 11.1111 µM / activity at 33.3333 µM / activity at 100 µM: 72 h; for activity at 0.411523 µM: conc 0.411522634 uM; for activity at 1.23457 µM: conc 1.234567901 uM; for activity at 3.7037 µM: conc 3.703703704 uM; for activity at 11.1111 µM: conc 11.11111111 uM; for activity at 33.3333 µM: conc 33.33333333 uM; for activity at 100 µM: conc 100 uM; for IC50: interpolated between the two concentrations closest to residual growth 0.5, top concentration 100 μM
Source text: (§1) Since fractions were not weighed individually, the injection mass was used to calculate an average mass per fraction and thus a nominal mass concentration.

Dictyostelium discoideum = assay: Infection assay: growth of the host amoeba D. discoideum (fluorescence) in infection; details: for activity at 0.411523 µM / activity at 1.23457 µM / activity at 3.7037 µM / activity at 11.1111 µM / activity at 33.3333 µM / activity at 100 µM: 72 h; for IC50: read-out: IC50 Dd in infection (μM)
Source text: as §1

Mycobacterium marinum [2] = assay: Anti-biotic assay: M. marinum growth in broth (luminescence); details: for activity at 0.411523 µM / activity at 1.23457 µM / activity at 3.7037 µM / activity at 11.1111 µM / activity at 33.3333 µM / activity at 100 µM: 72 h
Experimental: as §1
Plating bacteria and compounds or fractions was performed analogously to the infection assay described above. Bacteria growth was monitored with the Agilent BioTek H1 plate reader by recording luminescence at 32 °C.
The prepared plates were sealed and stored at 4 °C overnight. On the day of the experiment, nine 10 cm Petri dishes were infected (as described before) and grouped into three pools.

[3] = vehicle control set at 1, read-out: mean normalized residual growth, Mm in infection
[4] = vehicle control set at 1, read-out: median normalized residual growth, Mm in infection
[5] = read-out: mean normalized residual growth, Dd in infection
[6] = read-out: median normalized residual growth, Dd in infection
[7] = read-out: mean (normalised M. marinum growth, Mm in broth)
[8] = read-out: median (normalised M. marinum growth, Mm in broth)

Which activity at 0.411523 µM (Mycobacterium marinum [1]; [3]) does the source give for `Oc1cc(O)cc([C@H]2c3c(O)cc(/C=C/c4ccc(O)cc4O)cc3O[C@@H]2c2ccc(O)cc2O)c1` (relative stereo) [Compound 10, (−)-Gnetumontanin A] here?
Its activity at 0.411523 µM is 90.6%.

And the activity at 0.411523 µM (Mycobacterium marinum [1]; [4])?
Its activity at 0.411523 µM is 90.5%.

What about the activity at 1.23457 µM (Mycobacterium marinum [1]; [3]) of the same compound?
Its activity at 1.23457 µM is 132%.

And the activity at 1.23457 µM (Mycobacterium marinum [1]; [4])?
Its activity at 1.23457 µM is 135%.

And the activity at 3.7037 µM (Mycobacterium marinum [1]; [3])?
The activity at 3.7037 µM was 120%.

What about the activity at 3.7037 µM (Mycobacterium marinum [1]; [4]) of the same compound?
Its activity at 3.7037 µM is 120%.

What about the activity at 11.1111 µM (Mycobacterium marinum [1]; [3]) of the same compound?
The activity at 11.1111 µM was 145%.

And the activity at 11.1111 µM (Mycobacterium marinum [1]; [4])?
The activity at 11.1111 µM was 152%.

What about the activity at 33.3333 µM (Mycobacterium marinum [1]; [3]) of the same compound?
The activity at 33.3333 µM was 157%.

What about the activity at 33.3333 µM (Mycobacterium marinum [1]; [4]) of the same compound?
The activity at 33.3333 µM was 160%.

What about the activity at 100 µM (Mycobacterium marinum [1]; [3]) of the same compound?
The activity at 100 µM was 41.3%.

What about the activity at 100 µM (Mycobacterium marinum [1]; [4]) of the same compound?
Its activity at 100 µM is 59.1%.

And the IC50 (Mycobacterium marinum [1])?
Its IC50 is > 100 µM.

And the activity at 0.411523 µM (Dictyostelium discoideum; [5])?
The activity at 0.411523 µM was 126%.

What about the activity at 1.23457 µM (Dictyostelium discoideum; [5]) of the same compound?
The activity at 1.23457 µM was 88.6%.

And the activity at 3.7037 µM (Dictyostelium discoideum; [5])?
The activity at 3.7037 µM was 59.8%.

And the activity at 11.1111 µM (Dictyostelium discoideum; [5])?
Its activity at 11.1111 µM is 54.4%.

What about the activity at 33.3333 µM (Dictyostelium discoideum; [5]) of the same compound?
Its activity at 33.3333 µM is 51.5%.

And the activity at 100 µM (Dictyostelium discoideum; [5])?
The activity at 100 µM was 6.33%.

What about the activity at 0.411523 µM (Dictyostelium discoideum; [6]) of the same compound?
The activity at 0.411523 µM was 102%.

What about the activity at 1.23457 µM (Dictyostelium discoideum; [6]) of the same compound?
The activity at 1.23457 µM was 97%.

And the activity at 3.7037 µM (Dictyostelium discoideum; [6])?
The activity at 3.7037 µM was 90.5%.

What about the activity at 11.1111 µM (Dictyostelium discoideum; [6]) of the same compound?
The activity at 11.1111 µM was 84.7%.

And the activity at 33.3333 µM (Dictyostelium discoideum; [6])?
Its activity at 33.3333 µM is 80.4%.

What about the activity at 100 µM (Dictyostelium discoideum; [6]) of the same compound?
Its activity at 100 µM is 76.2%.

What about the IC50 (Dictyostelium discoideum) of the same compound?
The IC50 was > 100 µM.

And the activity at 0.411523 µM (Mycobacterium marinum [2]; [7])?
The activity at 0.411523 µM was 111%.

And the activity at 1.23457 µM (Mycobacterium marinum [2]; [7])?
Its activity at 1.23457 µM is 103%.

What about the activity at 3.7037 µM (Mycobacterium marinum [2]; [7]) of the same compound?
Its activity at 3.7037 µM is 95.3%.

And the activity at 11.1111 µM (Mycobacterium marinum [2]; [7])?
The activity at 11.1111 µM was 96.3%.

What about the activity at 33.3333 µM (Mycobacterium marinum [2]; [7]) of the same compound?
Its activity at 33.3333 µM is 99.7%.

And the activity at 100 µM (Mycobacterium marinum [2]; [7])?
Its activity at 100 µM is 90%.

What about the activity at 0.411523 µM (Mycobacterium marinum [2]; [8]) of the same compound?
Its activity at 0.411523 µM is 116%.

And the activity at 1.23457 µM (Mycobacterium marinum [2]; [8])?
The activity at 1.23457 µM was 103%.

And the activity at 3.7037 µM (Mycobacterium marinum [2]; [8])?
Its activity at 3.7037 µM is 95.2%.

And the activity at 11.1111 µM (Mycobacterium marinum [2]; [8])?
Its activity at 11.1111 µM is 96.3%.

And the activity at 33.3333 µM (Mycobacterium marinum [2]; [8])?
The activity at 33.3333 µM was 97.6%.

What about the activity at 100 µM (Mycobacterium marinum [2]; [8]) of the same compound?
Its activity at 100 µM is 91%.

Which results are given for `Oc1ccc(C=Cc2cc(O)cc3c2C(c2cc(O)cc(O)c2)C(c2ccc(O)c4c2OC(c2ccc(O)cc2O)C4c2cc(O)cc(O)c2)O3)cc1` (single isomer, unassigned; (-)) [Compound 11, (−)-Gnetuhainin M]?
activity at 0.411523 µM (Mycobacterium marinum [1]; [3]): 57.2%; activity at 0.411523 µM (Mycobacterium marinum [1]; [4]): 56.8%; activity at 1.23457 µM (Mycobacterium marinum [1]; [3]): 112%; activity at 1.23457 µM (Mycobacterium marinum [1]; [4]): 106%; activity at 3.7037 µM (Mycobacterium marinum [1]; [3]): 127%; activity at 3.7037 µM (Mycobacterium marinum [1]; [4]): 128%; activity at 11.1111 µM (Mycobacterium marinum [1]; [3]): 135%; activity at 11.1111 µM (Mycobacterium marinum [1]; [4]): 123%; activity at 33.3333 µM (Mycobacterium marinum [1]; [3]): 28.9%; activity at 33.3333 µM (Mycobacterium marinum [1]; [4]): 31.3%; activity at 100 µM (Mycobacterium marinum [1]; [3]): -4.28%; activity at 100 µM (Mycobacterium marinum [1]; [4]): 14.1%; IC50 (Mycobacterium marinum [1]): 22.2 µM; activity at 0.411523 µM (Dictyostelium discoideum; [5]): 150%; activity at 1.23457 µM (Dictyostelium discoideum; [5]): 115%; activity at 3.7037 µM (Dictyostelium discoideum; [5]): 73.2%; activity at 11.1111 µM (Dictyostelium discoideum; [5]): 64.6%; activity at 33.3333 µM (Dictyostelium discoideum; [5]): 39.6%; activity at 100 µM (Dictyostelium discoideum; [5]): 11.1%; activity at 0.411523 µM (Dictyostelium discoideum; [6]): 87.9%; activity at 1.23457 µM (Dictyostelium discoideum; [6]): 94.4%; activity at 3.7037 µM (Dictyostelium discoideum; [6]): 85.9%; activity at 11.1111 µM (Dictyostelium discoideum; [6]): 83%; activity at 33.3333 µM (Dictyostelium discoideum; [6]): 90.3%; activity at 100 µM (Dictyostelium discoideum; [6]): 72.8%; IC50 (Dictyostelium discoideum): > 100 µM; activity at 0.411523 µM (Mycobacterium marinum [2]; [7]): 99%; activity at 1.23457 µM (Mycobacterium marinum [2]; [7]): 108%; activity at 3.7037 µM (Mycobacterium marinum [2]; [7]): 110%; activity at 11.1111 µM (Mycobacterium marinum [2]; [7]): 88.7%; activity at 33.3333 µM (Mycobacterium marinum [2]; [7]): 92.2%; activity at 100 µM (Mycobacterium marinum [2]; [7]): 86.8%; activity at 0.411523 µM (Mycobacterium marinum [2]; [8]): 104%; activity at 1.23457 µM (Mycobacterium marinum [2]; [8]): 107%; activity at 3.7037 µM (Mycobacterium marinum [2]; [8]): 115%; activity at 11.1111 µM (Mycobacterium marinum [2]; [8]): 91.1%; activity at 33.3333 µM (Mycobacterium marinum [2]; [8]): 96.7%; activity at 100 µM (Mycobacterium marinum [2]; [8]): 83.5%; IC50 (Mycobacterium marinum [2]; read-out: IC50 Mm in broth (μM)): > 100 µM
